The structures appear in SMILES notation. Where “and” joins values, the source holds several entries; their conditions need not be identical. Equal entries are not always repeated. ± gives the expanded uncertainty stated by the source.

The nature of this data set: molar enthalpy of vaporization or sublimation. The conditions noted are these: 298.15 K; Liquid; Static calorimetry.
Take `CCOC(=O)c1cccc(N)c1` [ethyl 3-aminobenzoate]: the molar enthalpy is 19.9 ± 0.526 kcal/mol. As to `CCOC(=O)c1ccccc1N` [ethyl 2-aminobenzoate], the molar enthalpy was 17 ± 0.311 kcal/mol. To `CCCCCCCCCC` [decane] belongs 11.9 kcal/mol and 12.5 kcal/mol.

For the origin of these results see the NIST ThermoML archive (doi:10.1016/j.jct.2019.02.001).
